Test results as given in patent US20070191435A1, “HYDROCHLORIDE SALT OF 5-[4-[2-(N-METHYL-N-(2-PYRIDYL)AMINO)ETHOXY]BENZYL]THIAZOLIDINE-2,4-DIONE” (SmithKline Beecham p.l.c., priority 2000, published 2007).

Assays:
[1] = Solid state stability of the drug substance, assayed by HPLC; format: physicochemical; conditions: 1 month
Method: The solid state stability of the drug substance was determined by storing approximately 1.0 g of the material in a glass bottle at a) 40° C./75% Relative Humidity (RH), open exposure, for 1 month and b) at 50° C., closed, for 1 month. […] Solubility of the Hydrochloride

[2] = Solubility in water, visual, confirmed by HPLC assay of a saturated solution; format: physicochemical; conditions: thermodynamic from solid
Text: The visual solubility was confirmed by an HPLC assay of a saturated solution.

Structure (SMILES): CN(CCOc1ccc(CC2SC(=O)NC2=O)cc1)c1ccccn1.Cl (centres unmarked) [Hydrochloride, 5-[4-[2-(N-methyl-N-(2-pyridyl)amino)ethoxy]benzyl]thiazolidine-2,4-dione hydrochloride]
- HPLC assay for final content ([1]; 40° C./75% RH, open exposure): 100 % initial
- degradation products (HPLC) ([1]; 40° C./75% RH, open exposure): No significant degradation observed
- HPLC assay for final content ([1]; 50° C., closed): 101 % initial
- degradation products (HPLC) ([1]; 50° C., closed): No significant degradation observed
- solubility [2]: 25 mg/mL
